Measurements from US12247033B2, “Triazole-substituted imidazo[1,2-a]pyrimidines as cGAS inhibitors” (GlaxoSmithKline Intellectual Property Development Limited, priority 2022, dated 2025).
Counter-ions that a name gives are not always drawn.

target: human CGAS (157-522) (Homo sapiens, UniProt Q8N884); assay: biochemical
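Also: biochemical enzyme reaction, 2′3′-cGAMP product measured by RapidFire mass spectrometry (MRM) normalised to c-di-UMP internal standard, inhibition of product formation relative to high and low control wells.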

human CGAS (157-522), sequence (Q8N884 157-522): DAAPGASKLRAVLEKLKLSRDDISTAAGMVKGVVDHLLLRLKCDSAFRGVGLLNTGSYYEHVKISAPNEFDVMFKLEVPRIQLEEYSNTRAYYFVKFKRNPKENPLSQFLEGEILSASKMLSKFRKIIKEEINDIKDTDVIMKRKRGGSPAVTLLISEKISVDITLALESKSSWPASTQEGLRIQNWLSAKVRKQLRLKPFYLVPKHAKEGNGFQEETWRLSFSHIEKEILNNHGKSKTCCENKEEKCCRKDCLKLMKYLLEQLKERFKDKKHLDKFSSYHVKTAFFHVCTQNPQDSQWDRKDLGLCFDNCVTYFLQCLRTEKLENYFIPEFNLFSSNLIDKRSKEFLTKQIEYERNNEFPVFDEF

SMILES | IC50 [nM]
FC(F)(F)c1n[nH]c(-c2nc3ncccn3c2-c2cn[nH]c2)n1 [Example 11, 5-[3-(1H-pyrazol-4-yl)imidazo[1,2-a]pyrimidin-2-yl]-3-(trifluoromethyl)-1H-1,2,4-triazole, trifluoroacetic acid salt] | 10
COC(=O)c1ccn2c(-c3cn[nH]c3)c(-c3nc(Br)n[nH]3)nc2n1 [Example 35, methyl 2-(3-bromo-1H-1,2,4-triazol-5-yl)-3-(1H-pyrazol-4-yl)imidazo[1,2-a]pyrimidine-7-carboxylate] | 3.16
CC(C)Oc1ccn2c(-c3c[nH]cn3)c(-c3nc(Br)n[nH]3)nc2n1 [Example 40, 3-bromo-5-[3-(1H-imidazol-4-yl)-7-(propan-2-yloxy)imidazo[1,2-a]pyrimidin-2-yl]-1H-1,2,4-triazole] | 25.1
FC(F)(F)c1n[nH]c(-c2nc3ncc(CCN4CCOCC4)cn3c2-c2cnc[nH]2)n1 [Example 122, 4-{2-[3-(1H-imidazol-5-yl)-2-[3-(trifluoromethyl)-1H-1,2,4-triazol-5-yl]imidazo[1,2-a]pyrimidin-6-yl]ethyl}morpholine] | 5.01
FC(F)(F)c1ccn2c(-c3cnc[nH]3)c(-c3ncn[nH]3)nc2n1 [Example 97, 5-[3-(1H-imidazol-5-yl)-7-(trifluoromethyl)imidazo[1,2-a]pyrimidin-2-yl]-1H-1,2,4-triazole] | 7940
FC(F)(F)c1n[nH]c(-c2nc3nc(N4CCOCC4)ccn3c2-c2c[nH]cn2)n1 [Example 42, 4-[3-(1H-imidazol-4-yl)-2-[3-(trifluoromethyl)-1H-1,2,4-triazol-5-yl]imidazo[1,2-a]pyrimidin-7-yl]morpholine] | 25.1
O=C(O)c1ccn2c(-c3c[nH]cn3)c(-c3nc(C(F)(F)F)n[nH]3)nc2n1 [Example 102, 3-(1H-imidazol-4-yl)-2-[3-(trifluoromethyl)-1H-1,2,4-triazol-5-yl]imidazo[1,2-a]pyrimidine-7-carboxylic acid] | 3.16
Cn1cc(-c2c(-c3nc(C(F)(F)F)n[nH]3)nc3ncccn23)cn1 [Example 131, 5-[3-(1-methyl-1H-pyrazol-4-yl)imidazo[1,2-a]pyrimidin-2-yl]-3-(trifluoromethyl)-1H-1,2,4-triazole] | 15800
OC1CCCN(c2ccn3c(-c4cnc[nH]4)c(-c4nc(C(F)(F)F)n[nH]4)nc3n2)C1 (centres unmarked) [Example 56, 1-[3-(1H-imidazol-5-yl)-2-[3-(trifluoromethyl)-1H-1,2,4-triazol-5-yl]imidazo[1,2-a]pyrimidin-7-yl]piperidin-3-ol] | 20
CN1CCC(Oc2ccn3c(-c4c[nH]cn4)c(-c4nc(C(F)(F)F)n[nH]4)nc3n2)CC1 [Example 132, 4-{[3-(1H-imidazol-4-yl)-2-[3-(trifluoromethyl)-1H-1,2,4-triazol-5-yl]imidazo[1,2-a]pyrimidin-7-yl]oxy}-1-methylpiperidine] | 39.8
Brc1n[nH]c(-c2nc3ncccn3c2-c2c[nH]cn2)n1 [Example 37, 3-bromo-5-[3-(1H-imidazol-4-yl)imidazo[1,2-a]pyrimidin-2-yl]-1H-1,2,4-triazole, trifluoroacetic acid salt] | 3.16
OC1CCN(c2ccn3c(-c4cnc[nH]4)c(-c4nc(C(F)(F)F)n[nH]4)nc3n2)C1 (centres unmarked) [Example 53, 1-[3-(1H-imidazol-5-yl)-2-[3-(trifluoromethyl)-1H-1,2,4-triazol-5-yl]imidazo[1,2-a]pyrimidin-7-yl]pyrrolidin-3-ol] | 15.8
Cc1cn(C)c(COCc2cnc3nc(-c4nc(C(F)(F)F)n[nH]4)c(-c4c[nH]cn4)n3c2)n1 [Example 158, 5-(6-{[(1,4-dimethyl-1H-imidazol-2-yl)methoxy]methyl}-3-(1H-imidazol-4-yl)imidazo[1,2-a]pyrimidin-2-yl)-3-(trifluoromethyl)-1H-1,2,4-triazole] | 7.94
COC(=O)c1ccn2c(-c3c[nH]cn3)c(-c3nc(Br)n[nH]3)nc2n1 [Example 36, methyl 2-(3-bromo-1H-1,2,4-triazol-5-yl)-3-(1H-imidazol-4-yl)imidazo[1,2-a]pyrimidine-7-carboxylate] | 3.16
COc1cn2c(-c3c[nH]cn3)c(-c3nc(C(F)(F)F)n[nH]3)nc2nc1C [Example 51, 5-[3-(1H-imidazol-4-yl)-6-methoxy-7-methylimidazo[1,2-a]pyrimidin-2-yl]-3-(trifluoromethyl)-1H-1,2,4-triazole] | 10
COc1cc(OC)n2c(-c3c[nH]cn3)c(-c3nc(C(F)(F)F)n[nH]3)nc2n1 [Example 49, 5-[3-(1H-imidazol-4-yl)-5,7-dimethoxyimidazo[1,2-a]pyrimidin-2-yl]-3-(trifluoromethyl)-1H-1,2,4-triazole] | 12.6

The next lines start with the values.

IC50 [nM] | SMILES
15.8 | CN(C)c1ccn2c(-c3cnc[nH]3)c(-c3nc(C(F)(F)F)n[nH]3)nc2n1 [Example 43]
10 | O=C(O)Cc1cnc2nc(-c3nc(C(F)(F)F)n[nH]3)c(-c3cnc[nH]3)n2c1 [Example 92, 2-[3-(1H-imidazol-5-yl)-2-[3-(trifluoromethyl)-1H-1,2,4-triazol-5-yl]imidazo[1,2-a]pyrimidin-6-yl]acetic acid]
6.31 | Cc1cnc2nc(-c3nc(C(F)(F)F)n[nH]3)c(-c3cnc[nH]3)n2c1 [Example 54, 5-[3-(1H-imidazol-5-yl)-6-methylimidazo[1,2-a]pyrimidin-2-yl]-3-(trifluoromethyl)-1H-1,2,4-triazole]
7.94 | CC(O)C(O)COCc1cnc2nc(-c3nc(C(F)(F)F)n[nH]3)c(-c3cnc[nH]3)n2c1 (centres unmarked) [Example 112, 1-{[3-(1H-imidazol-5-yl)-2-[3-(trifluoromethyl)-1H-1,2,4-triazol-5-yl]imidazo[1,2-a]pyrimidin-6-yl]methoxy}butane-2,3-diol]
3.16 | FC(F)(F)c1n[nH]c(-c2nc3ncc(Cl)cn3c2-c2cnc[nH]2)n1 [Example 45, 5-[6-chloro-3-(1H-imidazol-5-yl)imidazo[1,2-a]pyrimidin-2-yl]-3-(trifluoromethyl)-1H-1,2,4-triazole]
2 | FC(F)(F)c1n[nH]c(-c2nc3nc4c(cn3c2-c2cnc[nH]2)CCO4)n1 [Example 48, 12-(1H-imidazol-5-yl)-11-[3-(trifluoromethyl)-1H-1,2,4-triazol-5-yl]-6-oxa-1,8,10-triazatricyclo[7.3.0.0^3,^7]dodeca-2,7,9,11-tetraene]
2 | CS(=O)(=O)Oc1cnc2nc(-c3nc(C(F)(F)F)n[nH]3)c(-c3cnc[nH]3)n2c1 [Example 20, 3-(1H-Imidazol-5-yl)-2-(3-(trifluoromethyl)-1H-1,2,4-triazol-5-yl)imidazo[1,2-a]pyrimidin-6-yl methanesulfonate]
12.6 | COc1nc2nc(-c3nc(C(F)(F)F)n[nH]3)c(-c3cnc[nH]3)n2cc1C [Example 59, 5-[3-(1H-imidazol-5-yl)-7-methoxy-6-methylimidazo[1,2-a]pyrimidin-2-yl]-3-(trifluoromethyl)-1H-1,2,4-triazole]
158 | FC(F)(F)c1n[nH]c(-c2nc3ncc(COc4cccnc4)cn3c2-c2cnc[nH]2)n1 [Example 119, 3-{[3-(1H-imidazol-5-yl)-2-[3-(trifluoromethyl)-1H-1,2,4-triazol-5-yl]imidazo[1,2-a]pyrimidin-6-yl]methoxy}pyridine]
5.01 | [O-][S+]1CCc2nc3nc(-c4nc(C(F)(F)F)n[nH]4)c(-c4cnc[nH]4)n3cc2C1 (centres unmarked) [Example 116, 6-(1H-imidazol-5-yl)-5-[3-(trifluoromethyl)-1H-1,2,4-triazol-5-yl]-11λ^4-thia-2,4,7-triazatricyclo[7.4.0.0^3,^7]trideca-1,3,5,8-tetraen-11-one]
794 | Cc1n[nH]c(-c2nc3nc(C(F)(F)F)ccn3c2-c2cnc[nH]2)n1 [Example 98, 5-[3-(1H-imidazol-5-yl)-7-(trifluoromethyl)imidazo[1,2-a]pyrimidin-2-yl]-3-methyl-1H-1,2,4-triazole]
1.58 | CCc1nc2nc(-c3nc(C(F)(F)F)n[nH]3)c(-c3cnc[nH]3)n2cc1C [Example 47, 5-[7-ethyl-3-(1H-imidazol-5-yl)-6-methylimidazo[1,2-a]pyrimidin-2-yl]-3-(trifluoromethyl)-1H-1,2,4-triazole]
0.794 | Oc1cnc2nc(-c3nc(C(F)(F)F)n[nH]3)c(-c3cnc[nH]3)n2c1 [Example 60, 3-(1H-imidazol-5-yl)-2-[3-(trifluoromethyl)-1H-1,2,4-triazol-5-yl]imidazo[1,2-a]pyrimidin-6-ol]
5.01 | Cc1cn2c(-c3cnc[nH]3)c(-c3nc(C(F)(F)F)n[nH]3)nc2nc1C [Example 52, 5-[3-(1H-imidazol-5-yl)-6,7-dimethylimidazo[1,2-a]pyrimidin-2-yl]-3-(trifluoromethyl)-1H-1,2,4-triazole]
12.6 | CN1Cc2cn3c(-c4cnc[nH]4)c(-c4nc(C(F)(F)F)n[nH]4)nc3nc2C(F)(F)C1 [Example 18, 13,13-difluoro-6-(1H-imidazol-5-yl)-11-methyl-5-[3-(trifluoromethyl)-1H-1,2,4-triazol-5-yl]-2,4,7,11-tetraazatricyclo[7.4.0.0^3,7]trideca-1,3,5,8-tetraene, trifluoroacetic acid salt]
1580 | CC(C)(C)CNC(=O)c1cnc2nc(-c3nc(C(F)(F)F)n[nH]3)c(-c3cnc[nH]3)n2c1 [Example 94, N-(2,2-dimethylpropyl)-3-(1H-imidazol-5-yl)-2-[3-(trifluoromethyl)-1H-1,2,4-triazol-5-yl]imidazo[1,2-a]pyrimidine-6-carboxamide]
